Patent publication US20250066343A1, “NOVEL CANNAB[…] DERIVATIVE, PREPARATION METHOD THEREFOR, AND COMPOSITION COMPRISING SAME FOR IMPROVING COGNITIVE FUNCTION” (priority 2021, published 2025)

Tests used:
Assay type in all cases: biochemical
[1] = target: Acetylcholinesterase (AChE) (Homo sapiens, UniProt P22303); experiment: Acetylcholinesterase inhibitory efficacy (acetylthiocholine/DTNB absorbance assay)
Protocol: (§1) Acetylcholinesterase or butyrylcholinesterase was prepared at 50 mU/ml, 50 μl was added to a 96-well plate, mixed with the aliquoted compound, and left for 10 minutes. The substrate, acetylthiocoline 0.05 mg/mL or butyrylthiocoline 0.1 mg/ml, was prepared and 50 μl was added to a 96-well plate and left for 10 minutes. Dithionitrobenzoic acid (DTNB) was prepared at 0.3 mg/ml, then 50 μl was added to a 96-well plate and left for 10 minutes.

[2] = target: T1, Monoamine oxidase B (MAO-B) (Homo sapiens, UniProt P27338); experiment: Monoamine oxidase B inhibitory efficacy (kynuramine fluorescence assay); conditions: compound 0-200 μM; enzyme 2 mU/mL; kynuramine substrate; N.D. = Not Detected
T1 sequence (P27338 1-520): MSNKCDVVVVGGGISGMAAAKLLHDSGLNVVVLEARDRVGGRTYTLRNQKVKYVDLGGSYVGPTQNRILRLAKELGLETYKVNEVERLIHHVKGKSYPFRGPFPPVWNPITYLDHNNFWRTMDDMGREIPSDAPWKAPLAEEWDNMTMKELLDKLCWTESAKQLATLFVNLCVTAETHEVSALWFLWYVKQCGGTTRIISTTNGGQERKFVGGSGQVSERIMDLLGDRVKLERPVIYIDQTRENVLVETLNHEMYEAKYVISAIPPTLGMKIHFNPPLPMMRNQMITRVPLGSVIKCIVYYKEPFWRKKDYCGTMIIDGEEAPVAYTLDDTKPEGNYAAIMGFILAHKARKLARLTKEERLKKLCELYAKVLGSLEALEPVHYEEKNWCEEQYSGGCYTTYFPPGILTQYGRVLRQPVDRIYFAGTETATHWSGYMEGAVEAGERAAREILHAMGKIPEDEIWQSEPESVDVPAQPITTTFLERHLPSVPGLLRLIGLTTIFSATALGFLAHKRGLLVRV
Protocol: Samples were prepared by dilution with DMSO to give concentrations of 0, 2, 5, 10, 20, 50, 100, and 200 μM of the compound, and 5 μl was dispensed into a 96-well plate. 135 μl of potassium phosphate buffer (0.1 M, 7.4 pH) was dispensed into a 96-well plate. Monoamine oxidase B was prepared at 2 mU/mL, and 50 μl was added to the 96-well plate, mixed with the dispensed compound, and left for 20 minutes. The substrate, kynuramine solution, was prepared at 100 μM, then 10 μl was added to a 96-well plate and left for 10 min. The reaction was stopped by adding 75 μl of NaOH (2N). The enzyme activity was calculated by measuring the concentration of kynuramine degraded by the enzyme using a fluorometer under 310 nm (excitation)/380 nm (emission) conditions. For the fluorescence blank experiment, potassium phosphate buffer was added instead of monoamine oxidase B to correct the compound-induced fluorescence intensity values.

[3] = target: Butyrylcholinesterase (BuChE) (Homo sapiens, UniProt P06276); experiment: Butyrylcholinesterase inhibitory efficacy (butyrylthiocholine/DTNB absorbance assay); conditions: compound 0-200 μM; enzyme 50 mU/ml; N.D. = Not Detected
Chain of Butyrylcholinesterase (BuChE) (P06276 29-602): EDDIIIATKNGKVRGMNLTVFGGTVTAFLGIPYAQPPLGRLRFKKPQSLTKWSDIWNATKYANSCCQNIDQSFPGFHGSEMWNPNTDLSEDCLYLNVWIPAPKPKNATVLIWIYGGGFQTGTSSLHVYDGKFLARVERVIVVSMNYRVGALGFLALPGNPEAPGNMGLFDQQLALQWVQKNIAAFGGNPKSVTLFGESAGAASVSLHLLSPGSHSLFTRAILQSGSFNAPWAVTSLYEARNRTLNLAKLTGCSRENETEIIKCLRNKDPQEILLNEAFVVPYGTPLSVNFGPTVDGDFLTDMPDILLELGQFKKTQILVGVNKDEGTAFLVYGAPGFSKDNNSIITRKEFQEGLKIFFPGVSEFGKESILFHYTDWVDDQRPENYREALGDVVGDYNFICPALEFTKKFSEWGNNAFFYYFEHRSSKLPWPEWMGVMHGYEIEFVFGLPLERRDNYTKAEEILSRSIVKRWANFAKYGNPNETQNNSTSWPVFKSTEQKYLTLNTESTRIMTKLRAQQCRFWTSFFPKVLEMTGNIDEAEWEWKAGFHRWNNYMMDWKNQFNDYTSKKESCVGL
Protocol: as §1

Chain of Acetylcholinesterase (AChE) (P22303 32-614, species assumed): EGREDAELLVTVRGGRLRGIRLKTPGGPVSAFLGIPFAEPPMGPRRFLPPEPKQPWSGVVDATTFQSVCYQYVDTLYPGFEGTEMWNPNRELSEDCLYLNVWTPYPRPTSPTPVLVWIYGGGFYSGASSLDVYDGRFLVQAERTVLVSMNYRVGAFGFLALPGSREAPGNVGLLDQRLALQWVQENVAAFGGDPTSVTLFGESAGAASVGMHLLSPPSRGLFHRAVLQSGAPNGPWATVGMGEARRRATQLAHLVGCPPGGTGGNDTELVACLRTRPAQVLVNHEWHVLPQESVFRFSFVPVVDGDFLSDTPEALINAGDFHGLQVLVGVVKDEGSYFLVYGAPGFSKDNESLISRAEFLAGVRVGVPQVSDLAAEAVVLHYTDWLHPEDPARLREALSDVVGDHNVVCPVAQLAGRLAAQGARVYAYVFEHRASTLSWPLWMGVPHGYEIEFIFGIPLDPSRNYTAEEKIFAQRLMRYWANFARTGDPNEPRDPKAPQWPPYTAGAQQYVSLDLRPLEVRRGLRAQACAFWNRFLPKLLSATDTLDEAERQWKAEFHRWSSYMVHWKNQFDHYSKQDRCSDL

## CCCCCc1cc2c(c(O)c1C(=O)NC1CCCCC1)C=CC(C)(CCC=C(C)C)O2 (stereo not drawn) [Compound 4f, N-cyclohexyl-5-hydroxy-2-methyl-2-(4-methylpent-3-en-1-yl)-7-pentyl-2H-chromene-6-carboxamide]
[1]
  IC50: 1.2 µM

## CCCCCc1cc2c(c(O)c1C(=O)N1CCS(=O)(=O)CC1)C=CC(C)(CCC=C(C)C)O2 (stereo not drawn) [Compound 4l, (1,1-dioxidothiomorpholino)(5-hydroxy-2-methyl-2-(4-methylpent-3-en-1-yl)-7-pentyl-2H-chromen-6-yl)methanone]
[2]
  IC50: 162 µM

## CCCCCc1cc2c(c(O)c1C(=O)NC(C)C)C=CC(C)(CCC=C(C)C)O2 (stereo not drawn) [Compound 4a, 5-hydroxy-N-isopropyl-2-methyl-2-(4-methylpent-3-en-1-yl)-7-pentyl-2H-chromene-6-carboxamide]
[1]
  IC50: 1.3 µM

## CCCCCc1cc2c(c(O)c1C(=O)Nc1ccc(-c3ccc(F)cc3)cc1)C=CC(C)(CCC=C(C)C)O2 (stereo not drawn) [Compound 4w, N-(4′-fluoro-[1,1′-biphenyl]-4-yl)-5-hydroxy-2-methyl-2-(4-methylpent-3-en-1-yl)-7-pentyl-2H-chromene-6-carboxamide]
[1]
  IC50: 13.7 µM
[2]
  IC50: 7.1 µM

## CCCCCc1cc2c(c(O)c1C(=O)NCC(CC)CCCC)C=CC(C)(CCC=C(C)C)O2 (stereo not drawn) [Compound 4j, N-(2-ethylhexyl)-5-hydroxy-2-methyl-2-(4-methylpent-3-en-1-yl)-7-pentyl-2H-chromene-6-carboxamide]
[1]
  IC50: 1.3 µM
[2]
  IC50: 43.3 µM

## CCCCCc1cc2c(c(O)c1C(=O)Nc1ccc(C)cc1)C=CC(C)(CCC=C(C)C)O2 (stereo not drawn) [Compound 4t, 5-hydroxy-2-methyl-2-(4-methylpent-3-en-1-yl)-7-pentyl-N-(p-tolyl)-2H-chromene-6-carboxamide]
[1]
  IC50: 47.7 µM

## CCCCCc1cc2c(c(O)c1C(=O)NCCS)C=CC(C)(CCC=C(C)C)O2 (stereo not drawn) [Compound 4y, 5-hydroxy-N-(2-mercaptoethyl)-2-methyl-2-(4-methylpent-3-en-1-yl)-7-pentyl-2H-chromene-6-carboxamide]
[1]
  IC50: 6.2 µM

## CCCCCCCCCNC(=O)c1c(CCCCC)cc2c(c1O)C=CC(C)(CCC=C(C)C)O2 (stereo not drawn) [Compound 4g, 5-hydroxy-2-methyl-2-(4-methylpent-3-en-1-yl)-N-nonyl-7-pentyl-2H-chromene-6-carboxamide]
[1]
  IC50: 0.5 µM
[2]
  IC50: 111 µM

## CCCCCc1cc2c(c(O)c1C(=O)N(C)C1CCCC1)C=CC(C)(CCC=C(C)C)O2 (stereo not drawn) [Compound 4ag, N-cyclopentyl-5-hydroxy-N,2-dimethyl-2-(4-methylpent-3-en-1-yl)-7-pentyl-2H-chromene-6-carboxamide]
[1]
  IC50: 47.7 µM
[2]
  IC50: 14.4 µM

## CCCCCc1cc2c(c(O)c1C(=O)NCCCc1ccccc1)C=CC(C)(CCC=C(C)C)O2 (stereo not drawn) [Compound 4n, 5-hydroxy-2-methyl-2-(4-methylpent-3-en-1-yl)-7-pentyl-N--(3phenylpropyl)-2H-chromene-6-carboxamide]
[1]
  IC50: 1.2 µM
[2]
  IC50: 19 µM

## CCCCCc1cc2c(c(O)c1C(=O)NC1CCCC1)C=CC(C)(CCC=C(C)C)O2 (stereo not drawn) [Compound 4e, N-cyclopentyl-5-hydroxy-2-methyl-2-(4-methylpent-3-en-1-yl)-7-pentyl-2H-chromene-6-carboxamide]
[1]
  IC50: 0.4 µM
[3]
  IC50: 0.4 µM

## CCCCCc1cc2c(c(O)c1C(=O)Nc1ncc(C)s1)C=CC(C)(CCC=C(C)C)O2 (stereo not drawn) [Compound 4r, 5-hydroxy-2-methyl-2-(4-methylpent-3-en-1-yl)-N-(5-methylthiazol-2-yl)-7-pentyl-2H-chromene-6-carboxamide]
[1]
  IC50: 1.1 µM
[2]
  IC50: 19.1 µM

## CCCCCc1cc2c(c(O)c1C(=O)N[C@H]1CCCN(C(=O)OC(C)(C)C)C1)C=CC(C)(CCC=C(C)C)O2 (stereo partly drawn) [Compound 4s, tert-butyl(3S)-3-(5-hydroxy-2-methyl-2-(4-methylpent-3-en-1-yl)-7-pentyl-2H-chromene-6-carboxamido)piperidine-1-carboxylate]
[1]
  IC50: 52.2 µM
[2]
  IC50: 15.5 µM

## CCCCCc1cc2c(c(O)c1C(=O)NCCCC)C=CC(C)(CCC=C(C)C)O2 (stereo not drawn) [Compound 4d, N-butyl-5-hydroxy-2-methyl-2-(4-methylpent-3-en-1-yl)-7-pentyl-2H-chromene-6-carboxamide]
[1]
  IC50: 1 µM

## CCCCCc1cc2c(c(O)c1C(=O)NC(C)CC)C=CC(C)(CCC=C(C)C)O2 (stereo not drawn) [Compound 4v, N-(sec-butyl)-5-hydroxy-2-methyl-2-(4-methylpent-3-en-1-yl)-7-pentyl-2H-chromene-6-carboxamide]
[1]
  IC50: 6.6 µM

## CCCCCCCCCCCCNC(=O)c1c(CCCCC)cc2c(c1O)C=CC(C)(CCC=C(C)C)O2 (stereo not drawn) [Compound 4h, N-dodecyl-5-hydroxy-2-methyl-2-(4-methylpent-3-en-1-yl)-7-pentyl-2H-chromene-6-carboxamide]
[1]
  IC50: 2.3 µM

## C=CCCCCCCCCCNC(=O)c1c(CCCCC)cc2c(c1O)C=CC(C)(CCC=C(C)C)O2 (stereo not drawn) [Compound 4i, 5-hydroxy-2-methyl-2-(4-methylpent-3-en-1-yl)-7-pentyl-N-(undec-10-en-1-1)-2H-chromene-6-carboxamide]
[1]
  IC50: 0.3 µM
[2]
  IC50: 66.8 µM

## CCCCCc1cc2c(c(O)c1C(=O)NCCc1ccc(O)cc1)C=CC(C)(CCC=C(C)C)O2 (stereo not drawn) [Compound 4x, 5-hydroxy-N-(4-hydroxyphenethyl)-2-methyl-2-(4-methylpent-3-en-1-yl)-7-pentyl-2H-chromene-6-carboxamide]
[1]
  IC50: 0.8 µM
[3]
  IC50: 2.6 µM

## CCCCCc1cc2c(c(O)c1C(=O)NC1CCN(S(C)(=O)=O)CC1)C=CC(C)(CCC=C(C)C)O2 (stereo not drawn) [Compound 4o, 5-hydroxy-2-methyl-2-(4-methylpent-3-en-1-yl)-N-(1-(methylsulfonyl)piperidin-4-yl)-7-pentyl-2H-chromene-6-carboxamide]
[2]
  IC50: 8.43 µM

## CCCCCc1cc2c(c(O)c1C(=O)NC1CCCCCC1)C=CC(C)(CCC=C(C)C)O2 (stereo not drawn) [Compound 4ab, N-cycloheptyl-5-hydroxy-2-methyl-2(4-methylpent-3en-1-yl)-7-pentyl-2H-chromene-6-carboxamide]
[1]
  IC50: 2.6 µM

## CCCCCc1cc2c(c(O)c1C(=O)Nc1ccc(Br)cc1)C=CC(C)(CCC=C(C)C)O2 (stereo not drawn) [Compound 4ad, N-(4-bromophenyl)-5-hydroxy-2-methyl-2-(4-methylpent-3-en-1-yl)-7-pentyl-2H-chromene-6-carboxamide]
[1]
  IC50: < 0.5 µM
[2]
  IC50: 12 µM

## CCCCCc1cc2c(c(O)c1C(=O)N1CCc3ccccc3C1)C=CC(C)(CCC=C(C)C)O2 (stereo not drawn) [Compound 4ac, (3,4-dihydroisoquinolin-2(1H)-yl)(5-hydroxy-2-methyl-2-(4-methylpent-3-en-1-yl)-7-pentyl-2H-chromen-6-yl)methanone]
[1]
  IC50: 2.1 µM
[2]
  IC50: 137 µM

## C#CCNC(=O)c1c(CCCCC)cc2c(c1O)C=CC(C)(CCC=C(C)C)O2 (stereo not drawn) [Compound 4m, 5-hydroxy-2-methyl-2-(4-methylpent-3-en-1-yl)-7-pentyl-N-(prop-2-yn-1-yl)-2H-chromene-6-carboxamide]
[1]
  IC50: 3.6 µM
[2]
  IC50: 79.7 µM

## CCCCCc1cc2c(c(O)c1C(=O)NC/C=C(\C)CCC=C(C)C)C=CC(C)(CCC=C(C)C)O2 (stereo not drawn) [Compound 4k, (E)-N-(3,7-dimethylocta-2,6-dien-1-yl)-5-hydroxy-2-methyl-2-(4-methylpent-3-en-1-yl)-7-pentyl-2H-chromene-6-carboxamide]
[1]
  IC50: 1.3 µM
[2]
  IC50: 59.3 µM

## CCCCCc1cc2c(c(O)c1C(=O)NC1CCOCC1)C=CC(C)(CCC=C(C)C)O2 (stereo not drawn) [Compound 4af, 5-hydroxy-2-methyl-2-(4-methylpent-3-en-1-yl)-7-pentyl-N-(tetrahydro-2H-pyran-4-yl)-2H-chromene-6-carboxamide]
[1]
  IC50: 46.1 µM
[2]
  IC50: 194 µM

## CCCCCc1cc2c(c(O)c1C(=O)NCc1cc(Br)cs1)C=CC(C)(CCC=C(C)C)O2 (stereo not drawn) [Compound 4p, N-((4-bromothiophen-2-yl)methyl)-5-hydroxy-2-methyl-2-(4-methylpent-3-en-1-yl)-7-pentyl-2H-chromene-6-carboxamide]
[1]
  IC50: 0.6 µM

## CCCCCc1cc2c(c(O)c1C(=O)NC1CC1)C=CC(C)(CCC=C(C)C)O2 (stereo not drawn) [Compound 4c, N-cyclopropyl-5-hydroxy-2-methyl-2-(4-methylpent-3-en-1-yl)-7-pentyl-2H-chromene-6-carboxamide]
[1]
  IC50: 4.3 µM
